Data set [1] addresses Norepinephrine Transporter (Human Recombinant) (Homo sapiens (Human), UniProt P23975). The experiment in a line: Norepinephrine transporter (human recombinant) binding assay, [3H]-Nisoxetine. Particulars: read-out: INH at 10 μM NET. On the procedure: II: Norepinephrine Transporter (Human Recombinant) Binding Assay • This assay was carried out in accordance with the procedure described by Raisman, R, et al. Eur. Jrnl. Pharmacol. 78: 345-351 (1982) with modifications. See also, Langer, S., et al., Eur. Jrnl. Pharmacol, 72: 423-4 (1981). Tissue Preparation • 1. hrNET (Receptor Biology; RBNET) is diluted in assay buffer to 2.5 microunits/ml, so that each tube receives 0.5 microunits, or 2 microunits/ml. • NOTE: 100 microassays, add 20 mis of buffer. Binding Reaction • 1. Each tube receives the following components: • 25 ul drug or vehicle • 25 ul [^3H]-Nisoxetine • 200 ul tissue suspension. • 2. Initiate binding reaction with the addition of tissue, and incubate at room temperature for 1 hour. • 3. Terminate binding reaction by rapid filtration of tube contents onto 0.1% PEI treated GF/C filters (TopCount). • 4. Rinse the assay tubes once with ice cold 50 mM NaCl, then rapidly rinse the filters with 6×1 ml/tube of the same wash buffer. • 5. Radioactivity trapped onto the filters is assessed using liquid scintillation spectrophotometer after soaking the filters for at least 1 hour in scintillation cocktail. Materials and Reagents • 1. The receptor source is human recombinant/CHO. • 2. [^3H]-Nisoxetine, diluted to a concentration of 10 nM in assay buffer, is used as the radioligand. Thus, the final ligand concentration is 1 nM. • 3. Non specific binding is defined as that remaining in the presence of 1×10^−6M desipramine (MW=302.8) (Make fresh: in bag with dessicating rocks 1, dissolves in water 1E-3). • 4. The reference compound for the assay is desipramine. Desimpramine is run at following final concentrations: • 1×10^−10, 2×10^−10, 5×10^−10, 1×10^−9, 2×10^−9, 5×10^−9, 1×10^−8, 2×10^−8, 5×10^−8, 1×10^−7, 2×10^−7, 5×10^−7M • 5. The positive control is any of the above run at the final concentrations of: • 1×10^−9, 5×10^−9, 2×10^−8 M. • 6. The Kd for the receptor is 3 nM. Buffers

The nature of data set [2]: Plasma drug concentration by different routes of administration. The class given is in vivo, C57BL/6 mice. Particulars: for Plasma Concentration: time 0 (pre-dose); for concentration at 5 min / concentration at 15 min / concentration at 30 min / concentration at 60 min / concentration at 120 min / concentration at 240 min / concentration at 480 min: C57BL/6, mouse, plasma. The protocol:
The following materials and methods are provided to facilitate the practice of Example 9, in which drug concentration in certain biological samples were assessed using different routes of administration.
Parameters Used in Dosing and Drug Administration of the Compound of Example 3:
Adult C57BL/6 mice (preferred 16 weeks old).
Three mice per time point. If all three routes are conducted in same day, one group of pre-dose is efficient.
In the studies using adult C57BL/6 mice (preferably approximately 16 weeks old), dosing and drug administration parameters for the compound of Example 3 were explored. Clearly, the compound is suitable for oral administration and lasts in the plasma up to 2-3 hours.

The subject of a further data set is mice. The experiment in a line: Open Field testing. The class given is in vivo, mouse. The note with it: for Anxiolytic effects in Open Field testing: FIGS. 9A-9D. The protocol:
Open Field testing was also performed. In carrying out this testing, individually housed male and female mice aged 8-12 weeks were used. The mice were maintained on a reverse L:D/12 p.m.: 12 a.m. cycle in a barrier facility. Food and water were available ad libitum. Testing occurred towards the end of the light cycle between 6-12 a.m. Mice were acclimated to the testing room for at least 30 minutes. The assay was performed in a custom-made Open Field Apparatus. Each chamber was a 50 by 50 cm square. The experiment was recorded and tracked by a tracking system obtained from Viewpoint.
The time and the path length in the center of the open field were determined. The center of the open field is defined as a 13.5×13.5 cm square in the geometric center of the arena. The percent of path in the center is calculated as
[formula] For each mouse, the total path length and path length for 60 minutes at 5 minute intervals was determined as a measure of locomotor activity. In addition, feces produced by each experimental animal during the test was counted. Each chamber was cleaned between individual mouse testing.
Path length for 60 minutes at 5 minute intervals was analyzed by repeat measures using SPSS software. All other parameters were compared using unpaired t-test (GraphPad Prism).

Here are results for 2 compounds from patent US9604945B2, “Sydnonimines-specific dopamine reuptake inhibitors and their use in treating dopamine related disorders” (priority 2007, dated 2017).

For the compound `Cc1ccc(C[n+]2[cH-]/c(=N\C(=O)Nc3ccccc3)on2)cc1` [Example 3, N-phenylcarbamoyl-3-(p-methyl-benzyl)-sydnonimine], the inhibition at 10 µM in data set [1] came to 14%. Moreover, in data set [2] (10 mg/kg (IP)), the “Plasma Concentration” value came to 21.00 ng/mL. Further, in data set [2] (10 mg/kg (IV)), the “Plasma Concentration” value is 18.33 ng/mL, the concentration at 5 min was found to be 2090 ng/mL, the concentration at 15 min was 2110 ng/mL and the concentration at 30 min was 915 ng/mL. Moreover, in data set [2] (10 mg/kg (IV)), the concentration at 60 min was found to be 417 ng/mL, the concentration at 120 min came to 139 ng/mL, the concentration at 240 min worked out at 47.4 ng/mL and the concentration at 480 min was 94.6 ng/mL. Further, in data set [2] (10 mg/kg (PO)), the “Plasma Concentration” value amounted to 10.60 ng/mL, the concentration at 5 min stood at 218 ng/mL, the concentration at 15 min came to 115 ng/mL and the concentration at 30 min stood at 59.9 ng/mL. In data set [2] (10 mg/kg (PO)), this compound came in with a concentration at 60 min of 21.3 ng/mL, a concentration at 120 min of 17.6 ng/mL, a concentration at 240 min of 15.8 ng/mL and a concentration at 480 min of 14.3 ng/mL. In data set [2] (30 mg/kg (PO)), the “Plasma Concentration” value is given as 8.93 ng/mL, the concentration at 5 min came out at 838 ng/mL, the concentration at 15 min worked out at 670 ng/mL and the concentration at 30 min stood at 375 ng/mL. Further, in data set [2] (30 mg/kg (PO)), the concentration at 60 min was 114 ng/mL, the concentration at 120 min was determined as 41.9 ng/mL, the concentration at 240 min came to 48.5 ng/mL and the concentration at 480 min was 13.4 ng/mL. Besides, in data set [2] (intraperitoneal, 10 mg/kg (IP)), the concentration at 5 min turned out to be 973 ng/mL, the concentration at 15 min stood at 316 ng/mL, the concentration at 30 min was 544 ng/mL and the concentration at 60 min worked out at 115 ng/mL. In data set [2] (intraperitoneal, 10 mg/kg (IP)), this compound yielded a concentration at 120 min of 82.5 ng/mL, a concentration at 240 min of 34 ng/mL and a concentration at 480 min of 31.2 ng/mL. In addition, the “Time the compound lasts in the plasma” value in data set [2] (mouse, in vivo) was in the range of 2 to 3 h. Besides, the “Locomotor activity in open field testing” value in the data set with mice (10 and 90 mg/kg, FIG. 8) is “effective to reduce locomotor activity”. The “Anxiolytic effects in Open Field testing” value in the data set with mice (10 and 90 mg/kg) is “demonstrable anxiolytic effects”. For the same compound, the “Number of fecal boli in open field testing” value in the data set on mice (mouse, in vivo) is “no effect”.
As to `O=C(/N=c1\[cH-][n+](CCCc2ccccc2)no1)Nc1ccccc1` [Example 6, N-phenylcarbamoyl-3-(phenylpropyl)-sydnonimine], the inhibition at 10 µM in data set [1] was found to be 1.44%. Moreover, in data set [2] (oral, 10 and 30 mg/kg, FIG. 3), the “Oral bioavailability compared to Example 3” value is reported as “relatively higher oral bioavailability”. Also, in data set [2] (same dosage, different routes, FIGS. 2A-2D), the “Bioavailability in the plasma and brain compared to Example 3” value was “slightly better bioavailability”. Further, the “Anxiolytic effects in Open Field testing” value in the data set on mice (10 and 90 mg/kg) is “induces anxiolytic effects”.
